In ChEMBL document CHEMBL1201862, “PubChem BioAssay data set” (2004):
Calls of active or inactive are those of the source.

Columns and labels:
[1] = target: G-protein coupled receptor 55 (Homo sapiens, UniProt Q9Y2T6); experiment: inhibition of LPI-stimulated GPR55 beta-arrestin translocation – imaging, U2OS, beta-arrestin-GFP, LPI agonist, primary screen (AID 2013); type: functional;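 note: antagonist potency measured as reduced agonist-driven arrestin aggregation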
[2] = viability of uninfected HEp-2 cells – cell-based, HTS, cytotoxicity control for RSV inhibitor project, dose response (AID 2410); type: functional; settings: human respiratory syncytial virus
[3] = cells
[4] = target: Alkaline phosphatase, placental type (Homo sapiens, UniProt P05187); experiment: human placental alkaline phosphatase inhibition – biochemical, luminescence, confirmation (AID 1512); type: functional
Alkaline phosphatase, placental type, sequence (P05187 whole entry): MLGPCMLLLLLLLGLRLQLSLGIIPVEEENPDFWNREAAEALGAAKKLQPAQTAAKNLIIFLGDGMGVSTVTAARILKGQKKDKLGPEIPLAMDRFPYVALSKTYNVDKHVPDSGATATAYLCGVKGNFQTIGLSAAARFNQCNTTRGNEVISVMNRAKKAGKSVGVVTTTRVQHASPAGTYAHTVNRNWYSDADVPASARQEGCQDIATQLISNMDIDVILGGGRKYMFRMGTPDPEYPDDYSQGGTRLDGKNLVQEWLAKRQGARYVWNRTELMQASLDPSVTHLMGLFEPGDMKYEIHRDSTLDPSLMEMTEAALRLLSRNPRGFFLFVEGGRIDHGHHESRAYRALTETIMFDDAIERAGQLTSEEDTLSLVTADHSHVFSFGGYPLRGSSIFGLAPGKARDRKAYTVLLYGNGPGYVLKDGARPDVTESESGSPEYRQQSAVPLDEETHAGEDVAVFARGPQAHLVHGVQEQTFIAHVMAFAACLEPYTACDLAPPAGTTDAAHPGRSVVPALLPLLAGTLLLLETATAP

[5] = target: T1, Alkaline phosphatase, tissue-nonspecific isozyme (Homo sapiens, UniProt P05186); experiment: potency against alkaline phosphatase TNAP – biochemical, luminescent, dose response, SAR follow-up (AID 1056)
T1 sequence (P05186 whole entry): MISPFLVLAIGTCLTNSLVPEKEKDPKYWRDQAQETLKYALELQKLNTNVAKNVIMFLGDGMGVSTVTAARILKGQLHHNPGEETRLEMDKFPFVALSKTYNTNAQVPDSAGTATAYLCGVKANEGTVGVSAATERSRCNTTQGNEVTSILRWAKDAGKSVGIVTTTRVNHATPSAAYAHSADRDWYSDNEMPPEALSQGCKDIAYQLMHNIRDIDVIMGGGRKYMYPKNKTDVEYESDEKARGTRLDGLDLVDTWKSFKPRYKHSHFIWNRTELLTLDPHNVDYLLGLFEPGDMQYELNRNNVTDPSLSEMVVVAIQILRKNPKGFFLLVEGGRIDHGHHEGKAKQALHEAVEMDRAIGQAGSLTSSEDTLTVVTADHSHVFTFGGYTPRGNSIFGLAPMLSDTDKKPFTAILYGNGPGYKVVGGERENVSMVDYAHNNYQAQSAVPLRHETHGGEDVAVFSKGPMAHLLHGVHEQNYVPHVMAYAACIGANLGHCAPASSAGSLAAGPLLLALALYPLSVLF

[6] = target: T2, Caspase-3 (Homo sapiens, UniProt P42574); experiment: activation of caspase-3 zymogen – biochemical, absorbance, dose response (AID 489014)
T2 sequence (P42574 whole entry): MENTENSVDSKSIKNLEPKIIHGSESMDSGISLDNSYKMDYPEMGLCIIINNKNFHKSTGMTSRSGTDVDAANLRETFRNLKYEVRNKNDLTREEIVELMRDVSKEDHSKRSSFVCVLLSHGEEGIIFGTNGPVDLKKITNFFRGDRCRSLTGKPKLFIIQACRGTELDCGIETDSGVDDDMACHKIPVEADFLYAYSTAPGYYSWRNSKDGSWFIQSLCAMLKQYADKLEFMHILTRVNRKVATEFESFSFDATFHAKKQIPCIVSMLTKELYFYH

[7] = target: Caspase-7 (Homo sapiens, UniProt P55210); experiment: activation of caspase-7 zymogen – biochemical, absorbance, counter-screen for procaspase-3 activator project, dose response (AID 489013)
Caspase-7, sequence (P55210 24-198 limits assumed): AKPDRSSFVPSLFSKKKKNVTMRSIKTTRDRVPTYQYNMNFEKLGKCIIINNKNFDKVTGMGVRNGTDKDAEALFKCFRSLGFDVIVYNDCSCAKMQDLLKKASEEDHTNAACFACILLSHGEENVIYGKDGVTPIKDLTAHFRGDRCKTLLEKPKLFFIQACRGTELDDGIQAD
Caspase-7, sequence (P55210 207-303 limits assumed): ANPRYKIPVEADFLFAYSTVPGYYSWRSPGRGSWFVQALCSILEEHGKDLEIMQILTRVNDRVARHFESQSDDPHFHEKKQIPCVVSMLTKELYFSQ

[8] = target: X-box-binding protein 1 (Homo sapiens, UniProt P17861); type: functional, Cricetulus griseus;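 note: confirmatory dose-response counter-screen serving a CHOP assay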
X-box-binding protein 1, sequence (P17861 whole entry): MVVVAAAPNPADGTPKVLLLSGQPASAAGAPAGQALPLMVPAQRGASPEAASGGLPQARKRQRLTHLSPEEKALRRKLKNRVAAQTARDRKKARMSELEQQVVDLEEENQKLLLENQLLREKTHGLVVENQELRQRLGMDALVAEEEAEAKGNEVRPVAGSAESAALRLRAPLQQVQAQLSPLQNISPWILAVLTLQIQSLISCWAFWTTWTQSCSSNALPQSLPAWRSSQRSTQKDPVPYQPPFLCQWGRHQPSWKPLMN

[9] = target: T1, Alkaline phosphatase, tissue-nonspecific isozyme
[10] = viability of PTEN-deleted HCT116 cells – cell-based, HCT116 PTEN knockout, dose response (AID 1047); type: functional;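 note: HCT116 colon tumor cells with PTEN knocked out; cells exposed to compound for 60 hours before readout; potency for loss of cell viability measured by luminescence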
[11] = viability of HCT116 lacking mutant beta-catenin – cell-based, human colon tumor, dose response (AID 1045); type: functional;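 note: HCT116 colon tumor cells with beta catenin knocked out; cells exposed to compound for 60 hours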
[12] = A Cell Based Secondary Assay To Explore Cytotoxicity of Compounds that Sensitize Mycobacterium Tuberculosis to Beta-Lactam Antibiotics.; type: functional
[13] = tested on: Streptococcus sp. 'group A'; experiment: Streptococcus pyogenes SK(-)GAS viability under kanamycin – luminescence, BacTiterGlo, confirmation, counter-screen for streptokinase expression inhibitor project, dose response (AID 1900); type: functional, organism-based
[14] = target: T3, Streptokinase A (Streptococcus pyogenes serotype M1, UniProt P10520); experiment: viability-normalized secreted streptokinase activity reduction – plasminogen activation absorbance, OD405, dose response (AID 1914); type: functional, Streptococcus pyogenes M1 GAS;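 note: secreted streptokinase activity via plasminogen activation per viability signal from cell pellet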
T3 sequence (P10520 whole entry): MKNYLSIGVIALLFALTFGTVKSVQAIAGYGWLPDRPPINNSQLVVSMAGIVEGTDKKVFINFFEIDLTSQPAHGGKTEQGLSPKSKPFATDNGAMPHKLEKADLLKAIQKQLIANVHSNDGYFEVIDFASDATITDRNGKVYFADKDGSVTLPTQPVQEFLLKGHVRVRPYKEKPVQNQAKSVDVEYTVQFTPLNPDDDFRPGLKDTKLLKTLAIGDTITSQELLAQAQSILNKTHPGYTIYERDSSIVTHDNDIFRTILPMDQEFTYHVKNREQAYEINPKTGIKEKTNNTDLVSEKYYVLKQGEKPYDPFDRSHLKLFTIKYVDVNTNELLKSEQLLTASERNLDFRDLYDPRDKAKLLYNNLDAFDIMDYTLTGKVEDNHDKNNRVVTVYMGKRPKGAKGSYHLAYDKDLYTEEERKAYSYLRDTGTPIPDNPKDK

[15] = tested on: Streptococcus; experiment: GAS UMAA2166 growth inhibition – luminescence, BacTiterGlo, counter-screen for streptokinase expression inhibitor project, dose response (AID 1915); type: functional, organism-based;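 note: potency for reduction of bacterial viability or growth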
[16] = target: C-C chemokine receptor type 6 (Homo sapiens, UniProt P51684); experiment: antagonism of CCR6 beta-arrestin recruitment – cell-based, luminescent beta-arrestin readout, dose response (AID 504728); type: functional
C-C chemokine receptor type 6, sequence (P51684 whole entry): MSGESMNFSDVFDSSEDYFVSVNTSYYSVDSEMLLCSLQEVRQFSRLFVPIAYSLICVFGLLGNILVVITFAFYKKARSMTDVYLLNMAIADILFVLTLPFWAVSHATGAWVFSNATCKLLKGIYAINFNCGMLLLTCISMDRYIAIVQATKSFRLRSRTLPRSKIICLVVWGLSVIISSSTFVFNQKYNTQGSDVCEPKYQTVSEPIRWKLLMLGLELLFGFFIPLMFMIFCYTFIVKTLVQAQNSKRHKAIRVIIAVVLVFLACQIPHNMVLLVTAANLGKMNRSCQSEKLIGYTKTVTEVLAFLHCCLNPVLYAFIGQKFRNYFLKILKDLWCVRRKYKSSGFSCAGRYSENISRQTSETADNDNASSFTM

[17] = target: Beta-galactosidase (Escherichia coli, UniProt Q8VNN2); experiment: detection-enzyme interference by beta-gal modulators – biochemical, E. coli enzyme, set 3, artefact control for CCR6 antagonist project, dose response (AID 504712); type: functional
Beta-galactosidase, sequence (Q8VNN2 whole entry): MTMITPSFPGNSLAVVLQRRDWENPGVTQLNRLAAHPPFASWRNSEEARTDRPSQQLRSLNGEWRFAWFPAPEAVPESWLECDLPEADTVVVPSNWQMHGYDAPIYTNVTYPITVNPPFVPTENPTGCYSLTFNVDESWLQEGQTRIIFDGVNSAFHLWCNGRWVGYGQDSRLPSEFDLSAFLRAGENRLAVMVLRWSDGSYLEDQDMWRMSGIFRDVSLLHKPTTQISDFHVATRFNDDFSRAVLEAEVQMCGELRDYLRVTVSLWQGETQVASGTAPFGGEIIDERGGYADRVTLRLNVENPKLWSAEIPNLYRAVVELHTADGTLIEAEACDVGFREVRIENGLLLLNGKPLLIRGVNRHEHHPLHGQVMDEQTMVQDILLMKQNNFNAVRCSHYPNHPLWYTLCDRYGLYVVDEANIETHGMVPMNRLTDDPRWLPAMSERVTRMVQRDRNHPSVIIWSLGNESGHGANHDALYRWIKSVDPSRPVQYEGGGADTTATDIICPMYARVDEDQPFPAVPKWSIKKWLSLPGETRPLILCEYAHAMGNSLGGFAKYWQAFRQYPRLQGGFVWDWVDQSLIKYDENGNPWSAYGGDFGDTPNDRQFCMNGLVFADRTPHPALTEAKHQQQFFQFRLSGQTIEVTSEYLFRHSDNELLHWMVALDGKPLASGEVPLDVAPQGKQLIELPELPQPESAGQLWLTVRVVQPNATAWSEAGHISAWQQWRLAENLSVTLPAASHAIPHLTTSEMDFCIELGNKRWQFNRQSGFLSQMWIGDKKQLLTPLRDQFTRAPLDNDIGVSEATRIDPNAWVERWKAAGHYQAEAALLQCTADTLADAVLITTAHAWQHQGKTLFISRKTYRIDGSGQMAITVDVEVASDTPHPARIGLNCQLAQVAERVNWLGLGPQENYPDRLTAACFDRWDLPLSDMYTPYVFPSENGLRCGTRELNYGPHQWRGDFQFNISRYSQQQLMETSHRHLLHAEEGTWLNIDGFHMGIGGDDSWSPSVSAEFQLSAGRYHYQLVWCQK

[18] = target: Melanin-concentrating hormone receptor 1 (Homo sapiens, UniProt Q99705); experiment: Fluorescence-based counterscreen for antagonists of the G-protein coupled receptor 7 (GPR7): cell-based high throughput dose response assay to identify antagonists of the melanin-concentrating hormone receptor 1 (MCHR1).; type: functional
Melanin-concentrating hormone receptor 1, sequence (Q99705 whole entry): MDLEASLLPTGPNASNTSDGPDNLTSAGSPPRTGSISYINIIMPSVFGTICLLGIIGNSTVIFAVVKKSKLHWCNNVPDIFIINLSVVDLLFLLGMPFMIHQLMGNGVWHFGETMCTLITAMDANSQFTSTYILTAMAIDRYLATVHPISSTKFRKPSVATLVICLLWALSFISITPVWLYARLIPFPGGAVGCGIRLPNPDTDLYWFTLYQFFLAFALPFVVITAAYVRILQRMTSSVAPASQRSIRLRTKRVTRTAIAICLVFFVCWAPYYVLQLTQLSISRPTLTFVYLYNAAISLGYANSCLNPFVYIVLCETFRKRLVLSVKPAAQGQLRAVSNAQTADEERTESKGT

[19] = target: Eukaryotic translation initiation factor 4E (Mus musculus, UniProt P63073); experiment: blockers of eIF4G binding by eIF4E – biochemical, TR-FRET, dose response (AID 855); type: functional;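 note: potency for disrupting eIF4E binding to eIF4GI seen as loss of FRET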
Eukaryotic translation initiation factor 4E, sequence (P63073 whole entry, the tested form may be a part): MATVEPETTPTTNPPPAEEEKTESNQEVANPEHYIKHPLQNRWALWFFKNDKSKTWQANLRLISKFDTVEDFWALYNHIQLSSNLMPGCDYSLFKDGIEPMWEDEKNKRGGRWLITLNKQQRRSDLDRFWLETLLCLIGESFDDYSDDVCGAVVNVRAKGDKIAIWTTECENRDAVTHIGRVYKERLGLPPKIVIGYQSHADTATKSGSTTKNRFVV

[20] = target: T4, Carboxy-terminal domain RNA polymerase II polypeptide A small phosphatase 1 (Homo sapiens, UniProt Q9GZU7); experiment: CTDSP1 inhibitors, concentration-response, biochemical, absorbance readout, ultra-high-throughput screen actives (AID 540297); type: functional
T4 sequence (Q9GZU7 whole entry): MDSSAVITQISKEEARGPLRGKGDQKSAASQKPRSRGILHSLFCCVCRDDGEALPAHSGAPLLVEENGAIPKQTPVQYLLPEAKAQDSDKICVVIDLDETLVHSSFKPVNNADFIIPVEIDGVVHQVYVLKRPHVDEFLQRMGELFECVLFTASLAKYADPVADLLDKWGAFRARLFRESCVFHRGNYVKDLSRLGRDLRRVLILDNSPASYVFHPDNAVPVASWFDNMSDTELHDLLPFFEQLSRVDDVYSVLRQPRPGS

[21] = target: DNA dC->dU-editing enzyme APOBEC-3G (Homo sapiens, UniProt Q9HC16); experiment: Dose Response confirmation of small molecule APOBEC3G DNA Deaminase Inhibitors via a fluorescence-based single-stranded DNA deaminase assay. [Related pubchem assays (depositor defined):AID493012, AID493028]; type: functional
DNA dC->dU-editing enzyme APOBEC-3G, sequence (Q9HC16 whole entry, the tested form may be a part): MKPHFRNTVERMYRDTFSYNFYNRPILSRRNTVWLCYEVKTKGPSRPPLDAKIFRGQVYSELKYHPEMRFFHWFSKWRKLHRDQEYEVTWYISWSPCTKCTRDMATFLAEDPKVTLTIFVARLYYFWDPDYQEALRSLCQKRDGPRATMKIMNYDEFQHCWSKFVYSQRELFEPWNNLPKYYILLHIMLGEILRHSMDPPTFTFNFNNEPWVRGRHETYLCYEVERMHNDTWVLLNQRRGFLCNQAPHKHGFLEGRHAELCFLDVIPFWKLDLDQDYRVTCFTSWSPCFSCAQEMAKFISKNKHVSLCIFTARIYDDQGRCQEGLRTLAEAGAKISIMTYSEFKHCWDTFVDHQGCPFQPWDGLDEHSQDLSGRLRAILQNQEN

[22] = target: Estrogen receptor (Homo sapiens, UniProt P03372); experiment: ERα coactivator recruitment enhancers – biochemical, TR-FRET, ERα LBD, dose response (AID 737)
[23] = target: Mannose-6-phosphate isomerase (Homo sapiens, UniProt P34949); experiment: MPI inhibition at elevated mannose 6-phosphate – biochemical, fluorescence intensity, high mannose 6-phosphate, primary screen (AID 1220)
Mannose-6-phosphate isomerase, sequence (P34949 whole entry): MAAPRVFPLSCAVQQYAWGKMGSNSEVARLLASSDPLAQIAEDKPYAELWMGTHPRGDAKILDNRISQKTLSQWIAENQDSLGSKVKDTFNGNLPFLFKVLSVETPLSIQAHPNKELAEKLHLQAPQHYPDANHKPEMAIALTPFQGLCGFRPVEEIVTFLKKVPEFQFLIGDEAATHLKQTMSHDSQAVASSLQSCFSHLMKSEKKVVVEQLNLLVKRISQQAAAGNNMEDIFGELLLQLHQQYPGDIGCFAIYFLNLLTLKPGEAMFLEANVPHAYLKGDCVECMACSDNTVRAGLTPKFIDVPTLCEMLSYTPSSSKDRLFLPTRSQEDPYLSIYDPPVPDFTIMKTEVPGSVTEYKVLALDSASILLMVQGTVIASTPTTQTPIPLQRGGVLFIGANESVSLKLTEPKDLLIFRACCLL

[24] = target: Serine/threonine-protein phosphatase PP1-alpha catalytic subunit (Homo sapiens, UniProt P62136); experiment: inhibition of protein phosphatase 1 activity – biochemical, fluorescence, dose response (AID 2403);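 note: phosphatase turnover of OMFP into fluorescent 3-O-methylfluorescein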
[25] = target: Serine/threonine-protein phosphatase (Homo sapiens, UniProt Q9BPW0); experiment: Counterscreen for inhibitors of PP1: fluorescence-based biochemical high throughput dose response assay to identify inhibitors of Protein Phosphatase 5 (PP5). [Related pubchem assays: 2034 (Summary (PP5 inhibitors)), 1987 (PP5 inhibitors in singlate), 2235 (PP1 inhibitors in singlate)]
Serine/threonine-protein phosphatase, sequence (Q9BPW0 whole entry): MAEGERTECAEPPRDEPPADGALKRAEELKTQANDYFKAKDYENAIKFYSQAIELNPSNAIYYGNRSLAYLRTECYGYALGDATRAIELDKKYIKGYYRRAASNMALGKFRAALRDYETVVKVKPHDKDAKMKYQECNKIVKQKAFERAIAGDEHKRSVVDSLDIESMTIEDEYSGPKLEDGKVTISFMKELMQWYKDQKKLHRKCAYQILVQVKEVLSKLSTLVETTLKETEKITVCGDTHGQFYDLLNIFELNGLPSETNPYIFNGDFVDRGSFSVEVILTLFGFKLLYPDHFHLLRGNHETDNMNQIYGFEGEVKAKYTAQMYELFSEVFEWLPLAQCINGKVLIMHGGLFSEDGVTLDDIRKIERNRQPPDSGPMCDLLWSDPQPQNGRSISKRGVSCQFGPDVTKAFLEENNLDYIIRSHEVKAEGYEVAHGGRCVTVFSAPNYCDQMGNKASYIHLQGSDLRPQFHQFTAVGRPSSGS

[26] = viability loss in THP-1 monocytes – THP-1 cells, cytotoxicity control for Vif-APOBEC3G degradation inhibitor project, dose response (AID 1117359); type: functional; settings: THP-1
[27] = target: Cytochrome P450 2D6 (Homo sapiens, UniProt P10635); experiment: qHTS Assay for Inhibitors and Substrates of Cytochrome P450 2D6. [Related pubchem assays: 410 ]; type: ADME; settings: read-out: Potency
Cytochrome P450 2D6, sequence (P10635 whole entry): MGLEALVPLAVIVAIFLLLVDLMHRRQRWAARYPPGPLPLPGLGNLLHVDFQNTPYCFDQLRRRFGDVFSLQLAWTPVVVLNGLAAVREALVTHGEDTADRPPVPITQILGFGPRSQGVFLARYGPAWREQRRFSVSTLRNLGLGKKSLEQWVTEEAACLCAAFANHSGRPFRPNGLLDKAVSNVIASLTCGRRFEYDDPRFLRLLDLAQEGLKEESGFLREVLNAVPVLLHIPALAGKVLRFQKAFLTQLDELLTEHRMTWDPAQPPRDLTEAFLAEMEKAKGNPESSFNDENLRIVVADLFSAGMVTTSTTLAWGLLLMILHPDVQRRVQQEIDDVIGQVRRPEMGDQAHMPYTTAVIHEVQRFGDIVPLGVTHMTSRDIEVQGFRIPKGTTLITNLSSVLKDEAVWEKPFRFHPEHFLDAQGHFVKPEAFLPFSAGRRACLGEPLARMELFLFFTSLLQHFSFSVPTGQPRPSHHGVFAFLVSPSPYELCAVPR

[28] = Luminescence-based cell-based high throughput dose response assay to identify activators of the DAF-12 from the parasite S. stercoralis (ssDAF-12).; type: functional
[29] = target: T5, Oxysterols receptor LXR-beta (Homo sapiens, UniProt P55055); experiment: LXR agonists, Gal4 luciferase reporter, dose response, counter-screen for ssDAF-12 agonist project, cell-based, luminescence, HEK293, S. stercoralis campaign (AID 720737); type: functional; settings: read-out: IC50 (the source's name)
T5 sequence (P55055 whole entry): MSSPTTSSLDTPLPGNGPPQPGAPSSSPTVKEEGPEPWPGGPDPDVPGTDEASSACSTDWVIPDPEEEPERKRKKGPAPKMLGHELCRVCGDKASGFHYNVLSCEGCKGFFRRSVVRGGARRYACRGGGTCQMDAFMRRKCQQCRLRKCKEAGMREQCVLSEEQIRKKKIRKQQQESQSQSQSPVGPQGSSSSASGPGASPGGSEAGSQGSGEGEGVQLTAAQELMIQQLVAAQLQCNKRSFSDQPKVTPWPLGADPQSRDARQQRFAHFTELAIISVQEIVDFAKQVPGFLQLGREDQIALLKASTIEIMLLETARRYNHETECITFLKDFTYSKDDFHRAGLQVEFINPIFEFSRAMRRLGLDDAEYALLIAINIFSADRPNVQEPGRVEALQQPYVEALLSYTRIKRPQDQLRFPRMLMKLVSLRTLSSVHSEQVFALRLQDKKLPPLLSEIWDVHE

[30] = target: Cytochrome P450 3A4 (Homo sapiens, UniProt P08684); settings: Potency;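 note: confirmatory qHTS run detecting inhibitors and substrates of CYP3A4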

In the case of COc1cc(OC)c(-n2c(C)cc(C=O)c2C)cc1Cl, the IC50 [1] is reported as 4.72 µM (active).

For Cc1nc2ccccc2nc1Nc1cccc(Cl)c1, the CC50 [2] was 24.1 µM (active) and the IC50 [3] was 11.7 µM (active).

For Cc1ccc(-c2nnc(SCC(=O)c3ccc(O)c(O)c3)n2-c2ccc(C)cc2)cc1, the IC50 [4] was 9.54 µM (active) and the IC50 [5] was > 100 µM (inactive).

For CCN(CC)c1ccc(/C=N/NC(=S)NCc2ccco2)cc1, the EC50 [6] was > 85.3 µM (inactive) and the EC50 [7] was > 85.3 µM (inactive).

For Cc1nc2ccccc2nc(C)c1=NOCc1cccc(F)c1, the CC50 [2] was 41.4 µM (active) and the IC50 [3] was 35.9 µM (active).

For CCCOc1ccc(N2C(=O)CC(SC(=NCC)Nc3cccc(F)c3)C2=O)cc1 (stereo not drawn), the “Absolute IC50 (XBP1)” value [8] was 10 µM.

With Cn1c(=O)c2c(nc(N/N=C/c3cccs3)n2Cc2ccccc2)n(C)c1=O the EC50 [9] was > 100 µM (not active), the EC50 [10] was 56.2 µM (active) and the EC50 [11] was 84.2 µM (active).

In the case of O=C1N=C(N/N=C/c2ccc3ncccc3c2)SC1Cc1ccc(SC(F)F)cc1 (stereo not drawn), the CC50 [12] is reported as > 40 µM (active).

With Cc1ccc(NC(=O)c2ccc(C#CC3(O)CCCCC3)cc2)cc1C the EC50 [13] was > 150 µM (not active), the EC50 [14] was 7.36 µM (inconclusive) and the EC50 [15] was > 150 µM (not active). The “Absolute IC50 (XBP1)” value [8] was 10 µM.

For Cc1cc(NC(=O)CSc2nc(C(C)C)nc3sc4c(c23)CCCC4)no1, the CC50 [12] was 38 µM (active).

For Cc1ccc(C)c2sc(NC(=O)c3nc4ccccc4s3)nc12, the IC50 [16] was 0.869 µM (active) and the IC50 [17] was > 66.6 µM (inactive).

In the case of C#CC(CO)N(CCN(Cc1ccccc1)C(C#C)CO)Cc1ccccc1 (stereo not drawn), the IC50 [18] is reported as 15 µM (not active).

In the case of COc1ccc(CCNC(=O)CCNC(=O)c2ccc(Br)cc2)cc1OC, the IC50 [19] is reported as > 64 µM (inactive).

For c1ccc2[nH]c(-c3ccnc4ccccc34)nc2c1, the IC50 [19] was > 64 µM (inactive) and the IC50 [20] was 3.66 µM (active).

With CCN(CC)c1ccc(NC(=O)c2ccccc2)cc1S(=O)(=O)Nc1ccccc1OC the IC50 [21] was 30 µM (active).

With CCCCOn1c(C)c(C(=O)OCC)c2c3nonc3ccc21 the EC50 [6] was > 85.3 µM (inactive) and the EC50 [7] was > 85.3 µM (inactive).

For COc1cccc(-n2nnnc2SCC(=O)Nc2ccc(C(C)=O)cc2)c1, the EC50 [22] was 17.3 µM (active).

In the case of COC(=O)C(N)Cc1ccc(O)c(O)c1 (stereo not drawn), the IC50 [23] is reported as > 50 µM (not active), the IC50 [4] is reported as 8.43 µM (active) and the IC50 [5] is reported as > 100 µM (inactive).

In the case of COc1ccc(CN2C(=O)Cc3c2nc(N)c2c(N)nc(N4CCCCC4)c(C#N)c32)cc1, the IC50 [24] is reported as 11.1 µM (not active) and the IC50 [25] is reported as > 67 µM (not active).

With CCC(C)N=C(S)NNC(=O)c1ccc(C(C)(C)C)cc1 (stereo not drawn) the EC50 [9] was 79.2 µM (not active) and the CC50 [26] was > 40 µM (active).

For COc1ccc(NC(=O)/C=C\c2ccc(Cl)cc2)cc1, the AC50 [27] was 25.1 µM (inconclusive).

With Cc1c(C(=O)Nc2nc3ccccc3[nH]2)oc2ccccc12 the IC50 [16] was 0.552 µM (active), the IC50 [17] was > 66.6 µM (inactive) and the IC50 [28] was > 67.5 µM (inactive). For the same compound, the EC50 [29] was > 67.5 µM (inactive).

With O=c1cc(-c2cccc(O)c2O)oc2ccccc12 the AC50 [27] was 31.6 µM (inconclusive) and the AC50 [30] was 20 µM (inconclusive).
